Results: patent US20040082623A1, “Fmoc-l-leucine and derivatives thereof as ppar-gamma agonists” (priority 2003, published 2004)

What was measured:
[1] = test system: C57BL/6j mice; experiment: Intraperitoneal glucose tolerance test in C57BL/6j mice; assay type: in vivo; conditions: for maximum glucose levels in IPGTT: 7 days, control 440
Procedure: Mice were treated with 2 different doses of F-L-Leu (10 and 30 mg/kg/days) during 7 days and then IPGTT was performed.

[2] = molecular target: T1, PPARγ2 (Homo sapiens, UniProt P37231); experiment: Transient transfection, PPARγ2 reporter in RK13 cells; assay type: cell-based; parameters: a construct containing the entire cDNA of the human PPARγ2 (hPPARγ2); expressed in transfected cells; host or cells: Hep G2, RK13 or CV1 cells
T1 sequence (P37231 1-505): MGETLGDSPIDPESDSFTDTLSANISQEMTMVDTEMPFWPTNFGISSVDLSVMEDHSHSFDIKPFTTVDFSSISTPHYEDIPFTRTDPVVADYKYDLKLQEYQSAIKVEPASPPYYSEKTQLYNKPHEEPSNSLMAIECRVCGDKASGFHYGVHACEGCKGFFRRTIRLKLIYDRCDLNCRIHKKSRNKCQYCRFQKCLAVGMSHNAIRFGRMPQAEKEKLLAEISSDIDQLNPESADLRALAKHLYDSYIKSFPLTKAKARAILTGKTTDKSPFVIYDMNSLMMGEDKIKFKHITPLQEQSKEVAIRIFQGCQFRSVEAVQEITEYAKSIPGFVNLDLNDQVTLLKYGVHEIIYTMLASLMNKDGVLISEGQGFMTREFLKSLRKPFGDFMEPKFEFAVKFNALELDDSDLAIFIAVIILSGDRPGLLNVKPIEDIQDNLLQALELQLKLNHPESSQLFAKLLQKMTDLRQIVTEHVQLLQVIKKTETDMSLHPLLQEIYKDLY
Procedure: RK13 cells (A and D), CV1 cells (B) or Hep G2 cells (C) were co-transfected with an expression vector for PPARγ2 (0.1 μg/well), pGL3-(Jwt)3TKLuc reported construct (0.5 μg/well), and pCMV-βGal (0.5 μg/well), as a control of transfection efficiency (0.5 μg/well). They were then grown during 24 h in the presence or absence of indicated compound. Activation is expressed as relative luciferase activity/β ? galactosidase activity. Each point was performed in triplicate, and each figure i ? representative of four independent experiments.
The CV1, RK-13, and Hep G2 cell lines were obtained from ATCC (Rockville, Md.). Cells were maintained in Dulbecco's modified Eagle's minimal essential medium (DMEM) supplemented with 10% fetal calf serum (FCS), L-glutamine, and antibiotics. Transfections with chloramphenicol acetyltransferase (CAT) or luciferase (luc.) reporter constructs were carried out exactly as described previously (Schoonjans et al., 1996). The pGL3-(Jwt)3TKLuc and the pGL3-(Jwt)3TKCAT reporter constructs contain both three tandem repeats of the J site of the apolipoprotein A-II promoter cloned upstream of the herpes simplex virus thymidine kinase (TK) promoter and the luciferase or the CAT reporter genes respectively (Vu-Dac et al., 1995). The following expression vectors were used; pSG5-hPPARγ2, a construct containing the entire cDNA of the human PPARγ2 (hPPARγ2) (Fajas et al., 1997); pSG5-mPPARα (Isseman et al., 1993); and pCMV-βGal, as a control of transfection efficiency.

[3] = molecular target: PPARγ DE/p300Nt-GST (Homo sapiens, UniProt P37231)
Sequence of PPARγ DE/p300Nt-GST (Q09472 2-516 partner limits assumed, one chain of several): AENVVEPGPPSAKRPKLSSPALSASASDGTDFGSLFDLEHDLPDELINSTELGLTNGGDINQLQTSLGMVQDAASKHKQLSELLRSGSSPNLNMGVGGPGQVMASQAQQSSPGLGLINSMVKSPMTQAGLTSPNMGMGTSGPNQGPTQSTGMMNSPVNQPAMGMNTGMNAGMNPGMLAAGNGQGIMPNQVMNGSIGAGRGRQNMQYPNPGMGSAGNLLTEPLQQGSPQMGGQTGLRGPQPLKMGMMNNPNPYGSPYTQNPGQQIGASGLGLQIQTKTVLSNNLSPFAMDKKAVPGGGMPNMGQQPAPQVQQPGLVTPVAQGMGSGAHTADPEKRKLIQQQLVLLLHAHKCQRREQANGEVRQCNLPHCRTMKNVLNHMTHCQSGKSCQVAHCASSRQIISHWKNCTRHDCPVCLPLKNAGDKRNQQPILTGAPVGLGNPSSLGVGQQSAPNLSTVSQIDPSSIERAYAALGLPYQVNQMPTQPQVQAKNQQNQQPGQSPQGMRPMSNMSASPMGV
Description: The beads were then washed and the samples separated on SDS-PAGE and blotted. The blot was developed with anti-histidine antibodies.
The p300Nt-GST, fusion protein was generated by cloning the N-terminal part of the p300 protein (a.a. 2 to 516) downstream of the glutathione-S-transferase (GST) protein in the pGex-T1 vector (Pharmacia, Orsay, France). The fusion proteins were then expressed in Escherichia coli and purified on a glutathione affinity matrix (Pharmacia). Human PPARγ (aa. 203 to 477 of PPARγ) was subcloned into the pET15b (Novagen, Madison, Wis.) expression vector. The his-tagPPARγ2DE203-477 proteins were produced as follow. The protein was purified using a metal chelate affinity column with an affinity column Co^2+ coupled agarose (High Trap chelatin, Pharmacia). The protein was eluted with 20 mM Tris-HCl, 500 M NaCl, 130 mM imidazole and 1-2 propanediol 2.5% (pH 8.5). A second purification step was made by gel filtration (Superdex 200 16/60, Pharmacia). The protein was eluted with 20 mM Tris-HCl, 100 mM NaCl, 5 mM DTT and 1-2 propanediol 2,5% (pH 8.5).

With `CC(C)CC(NC(=O)OCC1c2ccccc2-c2ccccc21)C(=O)O` [F-L-Leu, N-(9-fluroroenylmethyloxycarbonyl)-L-Leucine] the “insulin sensitivity in normal animals” value ([1]; 30 mg/kg/day) was “significantly improve insulin sensitivity”, the “clearance of intraperitoneally administered glucose vs vehicle” value ([1]; C57BL/6j, 10 mg/kg/day) was “comparable rate” and the “maximum glucose levels in IPGTT” value ([1]; C57BL/6j, 10 mg/kg/day i.p.) was 440 mg/dL. For the same compound, the “maximum glucose levels in IPGTT” value ([1]; C57BL/6j, 30 mg/kg/day i.p.) was 320 mg/dL, the “area under the curve in IPGTT” value ([1]; C57BL/6j, 30 mg/kg/day, vs control or lower dose) was “significantly lower” and the “concentration giving maximal PPARγ activation” value ([2]; RK13 cells) was 10^−5 M. For the same compound, the “modification of PPARγ activity when added to a saturating concentration of rosiglitazone” value ([2]; RK13 cells, 10^−5 M added) was “No significant modification”, the “concentration of optimal PPARγ activity / activation” value ([2]; rabbit kidney RK13 cells) was 10^−5 M and the “potency relative to rosiglitazone (fold lower)” value ([3]; p300 pull-down) was 2- to 3 fold. For the same compound, the “formation of PPARγ DE/p300Nt-GST complexes” value ([3]; vs DMSO, rosiglitazone 10^−4 M, F-L-Leu 10^−3 M) was “effectively induced”.
